Results: patent US7993660B2, “Method of increasing immunological effect” (IRx Therapeutics, Inc., priority 2007, dated 2011)
Where a SMILES comes first, the peptide text is derived from it. The star is where a group is joined. Cbz = O=C(OCc1ccccc1)*; CH2F = FC*

How the values were obtained:
caspase-3 and caspase-7 = assay: Caspase-3/-7 activation (caspase 3/7-FAM flow cytometry, Western immunoblot) in CD8+ Jurkat cells; type: cell-based, human; conditions: IRX-2 1:3 24 hours pre-treatment; zVAD 20 μM; ZB4 10 μg/mL; MV 10 μg 3 hours
Description: To determine total or phosphorylated forms of Akt, Bcl-2, CD3ζ, caspase-3, JAK3, STAT5, FLIP, and Mcl-1, Jurkat CD8+ cells or purified activated CD8+ or CD4+ T-cells were co-incubated with MV at the indicated concentration and/or with IRX-2 (1:3 final dilution) for the indicated period of time at 37° C. The cells were then washed, centrifuged at 4° C. and lysed in equal volumes of ice-cold lysis-buffer (50 mM Tris-HCL pH 7.5, 150 mM NaCl, 0.5% Nonidet P-40) and protease inhibitor cocktail (Pierce Chemical Co., Rockford, Ill.). After lysis, the homogenates were clarified by centrifugation. The supernatants were isolated, and boiled for 5 minutes in 5× Laemmli sample buffer. […]
Total cellular Caspase activity was tested by intracellular staining of activated caspases using a pan caspase inhibitor, CASPACE FITC-VAD-FMK In Situ Marker (Promega, Madison, Wis.). […] Then cells were stained for cell surface receptors, fixed with 1% paraformaldehyde and analyzed by flow cytometry. The specific activation of caspase-3 and caspase-7 was measured using the VYBRANT FAM caspase-3 and -7 Assay Kit from Invitrogen (Carlsbad, Calif.) according to the manufacturers' instructions. […] The cells were analyzed by flow cytometry with the fluorescein measured on the FL1 channel. […]

CD8+ Jurkat cells [1] = assay: Loss of mitochondrial membrane potential (JC-1) in CD8+ Jurkat cells; type: cell-based, human; conditions: IRX-2 1:3 24 hours pre-treatment, MV 10 μg 24 hours
Description: The loss of mitochondrial membrane potential (MMP) as a hallmark of apoptosis was measured using the MITOPROBE JC-1 Assay Kit from Invitrogen (Carlsbad, Calif.). The cationic dye JC-1 (5,5′, 6,6′-tetrachloro-1,1′, 3,3′-tetraethylbenzimidazolylcarbocyanine iodide) exists in healthy cells as a green monomer in the cytosol and also accumulates as red aggregates in the mitochondria. In apoptotic and necrotic cells, JC-1 remains only in the cytoplasm due to mitochondrial depolarization, which can be detected by flow cytometry as a decrease in the red/green fluorescence intensity ratio. CD8+ Jurkat cells or activated T lymphocytes were incubated in PBS containing 2 μM of JC-1 for 30 minutes at 37° C., 5% CO2. […] The cells were analyzed using a flow cytometer immediately after staining.
CD8+ Jurkat cells were analyzed by flow cytometry for a decrease in red fluorescence of the cationic dye JC-1, indicating a loss of MMP. Percentage of JC-1 red-negative cells were determined in cultures of CD8+ Jurkat cells after no treatment, 24 hours treatment with MV (10 μg) alone (no IRX) or pre-treated for 24 hours with IRX-2 (1:3 dilution) or MV in combination with the apoptosis-inhibitor Z-VAD-FMK (pan-caspase inhibitor; conc) or ZB4 (anti-Fas neutralizing mAb, conc/dose). […]

[2] = tested on: activated peripheral blood CD4+ T-lymphocytes; assay: Caspase activation (FITC-VAD-FMK staining, flow cytometry) in activated primary CD4+ T cells; type: cell-based, human; conditions: for inhibition of PCI-13/FasL-MV-induced apoptosis (caspase-VAD-FITC binding): CD4+, IRX-2 1:3 or IL-7, IL-15 100 ng/mL 24 hours, MV 15 μg 24 hours; for mean % of FITC-VAD-FMK+ cells ± SD: CD4+ cells, 24 hours pre-incubation (IRX-2 1:3, IL-2 100 IU/mL, IL-7/IL-15 10 ng/mL)
From the text: (§1) The head and neck squamous cell carcinoma (H&NSCC) cell line […] was established in Applicants' laboratory and maintained as previously described. It was retrovirally transfected with the human FasL gene obtained from Dr. S. Nagata (Osaka Biosciences Institute, Osaka, Japan) as previously reported. Supernatants of transfected PCI-13-cells (PCI-13-FasL), which contained both sFasL and the 42 kDa membranous form of FasL, were used as a source of tumor-derived microvesicles (MV). Jurkat cells were obtained from American Tissue Culture Collection (ATCC, Manassas, Va.) and were transfected with CD8. The CD8+ Jurkat cells were cultured in RPMI 1640 medium supplemented with 10% (v/v) fetal bovine serum (FBS), L-glutamine and antibiotics. Human T lymphocytes were isolated from peripheral blood mononuclear cells (PBMC) obtained from consented normal donors. PBMC were isolated by Ficoll-Hypaque density gradient centrifugation (GE Healthcare Bio-Sciences Corp., Piscataway, N.J.), washed and plated for 1 hour at 37° C. in culture flasks (T162) in an atmosphere of 5% CO2 to remove CD14+ monocytes. The non-adherent T-lymphocyte fraction was collected and immediately used for experiments or cryopreserved. CD8+ T cells or CD4+ T cells were purified by positive selection using CD8 MicroBeads or CD4 MicroBeads, respectively (Miltenyi Biotec, Auburn, Calif.) using the AutoMACS system according to the manufacturer's instructions. Purified CD8+ or CD4+ T cells were then cultured for 2-3 days in AIM V medium supplemented with 10% FBS in the presence of beads coated with anti-CD3 and anti-CD28 antibodies (T Cell Activation/Expansion Kit, Miltenyi Biotec). All cells used for the above described experiments were in the log phase of growth.
(§2) CD8+ Jurkat cells or activated normal T lymphocytes were plated at 0.3×10^6 cells per well in a 96-well plate and pre-treated or not with IRX-2 or with recombinant human cytokines at a final concentration of 10 ng/mL or 100 IU/mL for 24 hours (unless otherwise noted). MV (10 μg protein per 0.3×10^6 cells) were then added for 3-24 hours. In some experiments, cells were first co-incubated with MV for 3-24 hours, then washed and treated further with IRX-2 or cytokines or treated for the indicated time period with MV and IRX-2 added simultaneously. In selected blocking experiments, anti-Fas neutralizing monoclonal antibody, ZB-4, the pan-caspase inhibitor, Z-VAD-FMK, or the specific Akt-inhibitor or specific inhibitors for caspase-3, caspase-8 and caspase-9 were added at the indicated concentrations prior to MV co-incubation.
(§3) Four color flow cytometry was performed using a […] (Beckman Coulter) equipped with Expo32 software (Beckman Coulter). Lymphocytes were gated based on morphology, and debris, MV as well as monocytes and granulocytes were excluded, collecting data on at least 10^5 cells. For the analysis of activated primary T lymphocytes, gates were restricted to the CD3^+CD8^+ or CD3^+CD4^+ T-cell subsets. Data was analyzed using Coulter EXPO 32vl.2 analysis software.
(§4) Total cellular Caspase activity was tested by intracellular staining of activated caspases using a pan caspase inhibitor, CASPACE FITC-VAD-FMK In Situ Marker (Promega, Madison, Wis.). Cells were resuspended in PBS and FITC-VAD-FMK was added at a final concentration of 5 μM. The cells were incubated for 20 minutes at 37° C., 5% CO2 and washed with PBS. Then cells were stained for cell surface receptors, fixed with 1% paraformaldehyde and analyzed by flow cytometry. The specific activation of caspase-3 and caspase-7 was measured using the VYBRANT FAM caspase-3 and -7 Assay Kit from Invitrogen (Carlsbad, Calif.) according to the manufacturers' instructions. Briefly, cells were resuspended in PBS and stained with a 150× dilution of the carboxyfluorescein (FAM)-labeled FMK-caspase inhibitor for 60 minutes at 37° C., 5% CO2. Then the cells were washed in wash buffer and fixed with 1% paraformaldehyde.

[3] = tested on: activated peripheral blood CD8+ T-lymphocytes; assay: Caspase activation (FITC-VAD-FMK staining, flow cytometry) in activated primary CD8+ T cells; type: cell-based, human; conditions: for inhibition of PCI-13/FasL-MV-induced apoptosis (caspase-VAD-FITC binding): CD8+, IRX-2 1:3 or IL-7, IL-15 100 ng/mL 24 hours, MV 15 μg 24 hours; for mean % of FITC-VAD-FMK+ cells ± SD: CD8+ cells, 24 hours pre-incubation (IRX-2 1:3, IL-2 100 IU/mL, IL-7/IL-15 10 ng/mL)
From the text: as §1, §2, §3, §4

CD8+ Jurkat cells [4] = type: cell-based; conditions: 24 hours pre-treatment (IRX-2 1:3; IL-7, IL-15 10 ng/mL), PCI-13/FasL-MV 15 μg 3 hours; no IRX-2 lane 50%
Description: as §2
Total cellular Caspase activity was tested by intracellular staining of activated caspases using a pan caspase inhibitor, CASPACE FITC-VAD-FMK In Situ Marker (Promega, Madison, Wis.). […] Then cells were stained for cell surface receptors, fixed with 1% paraformaldehyde and analyzed by flow cytometry. The specific activation of caspase-3 and caspase-7 was measured using the VYBRANT FAM caspase-3 and -7 Assay Kit from Invitrogen (Carlsbad, Calif.) according to the manufacturers' instructions. […]

[5] = Table 2A MV-induced apoptosis, then 10 μg MV 24 hours
[6] = Table 2B CH-11 Ab-induced apoptosis, then 400 ng/mL CH-11 Ab 24 hours

| Compound | MV-induced induction of caspase-3 and -7 activity (caspase-3/-7-FAM MFI) (caspase-3 and caspase-7) | MV-induced loss of mitochondrial membrane potential (JC-1 red-negative cells) (CD8+ Jurkat cells [1]) | inhibition of PCI-13/FasL-MV-induced apoptosis (caspase-VAD-FITC binding) [2] | mean % of FITC-VAD-FMK+ cells ± SD [2, 5] [%] | mean % of FITC-VAD-FMK+ cells ± SD [2, 6] [%] | inhibition of PCI-13/FasL-MV-induced apoptosis (caspase-VAD-FITC binding) [3] | mean % of FITC-VAD-FMK+ cells ± SD [3, 5] [%] | mean % of FITC-VAD-FMK+ cells ± SD [3, 6] [%] | apoptotic cells (activated caspase-VAD-FITC binding CD8+ Jurkat cells) (CD8+ Jurkat cells [4]) |
| --- | --- | --- | --- | --- | --- | --- | --- | --- | --- |
| COC(=O)C[C@H](NC(=O)[C@H](C)NC(=O)[C@@H](NC(=O)OCc1ccccc1)C(C)C)C(=O)CF [zVAD] (Cbz-Val-Ala-Asp(OMe)-CH2F) | completely prevented | block was comparable to that provided by the two inhibitors | – | – | – | – | – | – | – |
| IL-7: human recombinant survival cytokine, purchased from Peprotech | – | – | similarly effective compared to IRX-2 | 34.5 ± 1.9 | 31.8 ± 10.6 | similarly effective compared to IRX-2 | 49.5 ± 3.5 | 37.7 ± 1.4 | neither IL-7 nor IL-15 alone was able to reduce the level of apoptosis below the control MV-induced level |
| IL-15: human recombinant survival cytokine, purchased from Peprotech | – | – | similarly effective compared to IRX-2 | 16.7 ± 2.1 | 21.1 ± 5.3 | similarly effective compared to IRX-2 | 16.8 ± 6.2 | 28.8 ± 3.1 | neither IL-7 nor IL-15 alone was able to reduce the level of apoptosis below the control MV-induced level |
